Results published in publication PMC10515483, “Structure–Reactivity Studies of 2-Sulfonylpyrimidines Allow Selective Protein Arylation” (Bioconjugate Chemistry, 2023).
Converted amounts (≈) assume the structure as drawn.

Columns and labels:
β-catenin ARD = biological target: T1, β-catenin ARD (Homo sapiens, UniProt P35222); assay: Differential scanning fluorimetry (DSF); assay type: binding; settings: 100 μM compound; 8 µM β-cat; read-out: Protein thermal stability ΔTm
T1 construct: vector pLipK-ARD (residues 150 – 662) was used; 6xHis-Lip (6xHis, lipoyl domain); made in house; host or cells: E. coli BL21(DE3) pRARE2
T1 sequence (P35222 150-662): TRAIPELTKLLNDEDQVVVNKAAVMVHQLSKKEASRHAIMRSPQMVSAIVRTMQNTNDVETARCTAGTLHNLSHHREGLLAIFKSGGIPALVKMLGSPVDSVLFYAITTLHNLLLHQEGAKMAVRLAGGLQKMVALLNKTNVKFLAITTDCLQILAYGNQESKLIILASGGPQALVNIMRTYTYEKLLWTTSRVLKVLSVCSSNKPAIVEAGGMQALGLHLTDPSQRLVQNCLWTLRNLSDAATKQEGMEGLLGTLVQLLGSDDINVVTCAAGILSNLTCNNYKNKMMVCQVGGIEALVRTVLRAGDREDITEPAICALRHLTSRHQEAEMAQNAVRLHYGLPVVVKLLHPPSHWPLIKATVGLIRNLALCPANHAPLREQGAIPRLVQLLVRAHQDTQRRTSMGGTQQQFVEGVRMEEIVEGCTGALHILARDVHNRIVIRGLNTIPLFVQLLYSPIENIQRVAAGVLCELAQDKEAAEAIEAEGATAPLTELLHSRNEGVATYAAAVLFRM
Text: We also probed the general effect of 2-SPs on protein stability by using differential scanning fluorimetry (DSF). […] Mutants of the 25 kDa DNA-binding domain of the tumor suppressor p53 are notorious for their reduced thermal stability and denaturation/aggregation propensity.[37] The 56 kDa armadillo domain (ARD) of β-catenin mediates canonical Wnt signaling and plays a central role in embryogenesis and tissue homeostasis.[38] FGE (37 kDa) is the only known activator of human sulfatases, and its stability is susceptible to modification of its cysteines.[39] […]
Human β-catenin armadillo domain. β-catenin sequence was amplified by PCR (KOD DNA polymerase, Merck Millipore) from plasmid templates and cloned into bacterial expression vectors by restriction - free cloning. All plasmids were verified by sequencing. For protein pro duction, bacterial expression vector pLipK-ARD (residues 150 – 662) was used. 6xHis-Lip-tagged recombinant proteins were purified from BL21(DE3) pRARE2 E. coli bacterial strains. Bacteria were grown in LB media supplemented with appropriate antibiotic to OD600 0.6, then dropped to a lower temperature (16 – 24 °C) and induced at OD600 0.8 by addition of 0.4 mM isopropyl β -D-1-thiogalactopyranoside (IPTG). Proteins were expressed overnight and bacteria were subsequently harvested by centrifugation, cell pelle ts shock-frozen in liquid nitrogen and stored at -80°C until use. Cell pellets were re -suspended in lysis buffer (25 mM Tris -HCl pH 8, 200 mM NaCl, 20 mM imidazole, 10 μg/mL DNAse, EDTA -free protease inhibitor cocktail) and lysed with an Emulsiflex C-3 (Avestin). Lysates were cleared by ultracentrifugation (140,000x rcf, 30 minutes, 4°C) and mixed with Ni-NTA agarose. Beads were washed multiple times with lysis buffer, and 6xHisLip - tagged protein was eluted with lysis buffer supplemented with 500 mM imidazo le. The protein was further purified by SEC on a HiPrep26/60 G200 (GE Healthcare) into the final buffer of 200 mM NaCl, 25 mM Tris pH 7.4, 0.06% NaN3, 1 mM DTT, and protein purity was assessed by SDS -PAGE. Pure protein fractions were concentrated using a 1 0 kDa MWCO Vivaspin 20 concentrator (Sartorius) to 17 – 28 mg/mL, then shock frozen as droplets in liquid nitrogen and stored at -80°C until use. […]

[1] = Solubility in KPi buffer by NMR with TMSP internal standard; settings: 50 mM KPi aqueous buffer, pH 7, aqueous with cosolvent or surfactant or cyclodextrin, kinetic from dmso stock
Experimental: Stability and solubility assays
transferred to the NMR instrument for acquisition. 1H spectra (16 scans) were recorded every 10 minutes under water suppression conditions. Following acquisition, spectra were analysed using
TopSpin. Normalised integrations of the pyrimidine aromatic 1H signals in the starting material and
product were plotted as a function of time (s), using the TMSP peak as standard for integral
calibration/normalisation and monitoring of compound solubility, allowing extraction of pseudo first
order reaction rate constants (k’). Second order rate constants (k) were back calculated from the ratio
of the pseudo first counterparts and the concentration of thiol in solution.
was confirmed by formation of a single S-arylated product (characteristic 2-alkylthioether signals),
concomitant with formation of the sulfinic acid by -product (leaving group). Hydrolytic stability
assessment was performed at pH 7.0 and pH 8.2 in a similar manner, in the absence of thiol.
Chemoselectivity. Similarly, but replacing GSH by other amino acids , reference 2-
methylsulfonylpyrimidine 4q in 50 mM KPi (pH 8.2) was incubated with 10 equivalents of either Boc-
Lys-OH, L-ser-OMe, N-Ac-Tyr-OH or Proline were used.

[2] = GSH arylation rate constants (NMR; UV-vis for fast warheads); assay type: physicochemical; settings: for k/kref / ΔΔG≠1exp: relative to 4q; for ΔΔG≠1exp: via -RTln(k/kref); for k: Table S8, rate constants obtained at pH = 7
In short: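 Second-order rate constants k for GSH arylation derived from pseudo-first-order k′ (warhead:GSH 1:10), by normalized NMR integration of the disappearing warhead signal over 6 h; TMSP internal standard. KPi buffer with 5% d6-DMSO, pH 7.0 and 6.5, 20 °C; UV–vis used for fast warheads. Mean of ≥2 independent runs.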

[3] = pH 6.5, by NMR, KPi buffer, 5% DMSO-d6
[4] = pH 7.0, by NMR, KPi buffer, 5% DMSO-d6
[5] = pH 7.0, ratio to rate constant of 4q, acceleration (+) or deceleration (-)
[6] = pH 6.5, measured by UV titrations
[7] = pH 7.0, measured by UV titrations

ΔTm at 100 µM (β-catenin ARD)	solubility [1]	SMILES	rate constant (k) for the reaction with GSH [2, 3]	rate constant (k) for the reaction with GSH [2, 4]	k change (vs ref) [2, 5]	k/kref [2]	ΔΔG≠1exp [2]	k [2]	rate constant (k) for the reaction with GSH [2, 6]	rate constant (k) for the reaction with GSH [2, 7]	k change (vs ref) ([2]; pH 7.0, ratio to 4q, from value measured by UV titrations (footnote a))
-0.1 ± 0.1 °C	≥ 2000 µM	CC(C)(C)S(=O)(=O)c1ncccn1 [5a]	Ca. 0.03 mM-1.s-1	0.00018 ± 3e-05 M⁻¹ s⁻¹	-139 fold	0.0072	2.87 kcal/mol	–	–	–	–
-0.1 ± 0.1 °C	≥ 2000 µM	Nc1ccc(S(=O)(=O)c2ncccn2)cc1 [5b]	0.002 M⁻¹ s⁻¹	0.005 M⁻¹ s⁻¹	-5 fold	0.20	0.956 kcal/mol	0.0050 M⁻¹ s⁻¹	–	–	–
-0.1 ± 0.1 °C	100 µM (≈ 32.6 µg/mL)	O=S(=O)(Oc1c(F)c(F)c(F)c(F)c1F)c1ncccn1 [5h]	–	–	+960 fold	960	-4.06 kcal/mol	24 M⁻¹ s⁻¹	5.4 ± 0.72 M⁻¹ s⁻¹	24 ± 1.1 M⁻¹ s⁻¹	–

The next lines start with the compound.

SMILES	ΔTm at 100 µM (β-catenin ARD)	solubility [1]	rate constant (k) for the reaction with GSH [2, 3]	rate constant (k) for the reaction with GSH [2, 4]	k change (vs ref) [2, 5]	k/kref [2]	ΔΔG≠1exp [2]	k [2]	rate constant (k) for the reaction with GSH [2, 6]	rate constant (k) for the reaction with GSH [2, 7]	k change (vs ref) ([2]; pH 7.0, ratio to 4q, from value measured by UV titrations (footnote a))
CS(=O)(=O)c1ncc(C(=O)O)cn1 [4v]	-1.3 ± 0.1 °C	≥ 2000 µM	–	–	+1,200 fold	1200	-4.3 kcal/mol	30 M⁻¹ s⁻¹	6.7 ± 3.1 M⁻¹ s⁻¹	30 ± 3.2 M⁻¹ s⁻¹	–
CS(=O)(=O)c1ncc(-c2ccccc2)cn1 [4p]	-0.1 ± 0.1 °C	< 2000 µM	0.01 ± 0.005 M⁻¹ s⁻¹	0.012 ± 0.0078 M⁻¹ s⁻¹	-2 fold	–	–	–	–	–	–
COC(=O)c1ccnc(S(C)(=O)=O)n1 [4k]	-0.1 ± 0.1 °C	≥ 2000 µM	0.26 ± 0.045 M⁻¹ s⁻¹	–	–	112	-2.87 kcal/mol	2.8 M⁻¹ s⁻¹	0.37 ± 0.063 M⁻¹ s⁻¹	2.8 ± 1.1 M⁻¹ s⁻¹	+112 fold
COc1ccnc(S(C)(=O)=O)n1 [4b]	-0.1 ± 0.1 °C	≥ 2000 µM	0.0013 ± 0.0008 M⁻¹ s⁻¹	0.0045 ± 0.0005 M⁻¹ s⁻¹	-6 fold	0.18	1.03 kcal/mol	0.0045 M⁻¹ s⁻¹	–	–	–
